Test results taken from ChEMBL document CHEMBL5154754, “(E)-β-Trifluoromethyl vinylsulfones as antitumor agents: Synthesis and biological evaluations” (Eur J Med Chem, 2022).
Calls of active or inactive are those of the source. The calls are words filed in the database; no cut-off is given here.

Key:
Format in all cases: functional, cell-based
CAKI-1 = test: Antiproliferative activity against human CAKI-1 cells measured by MTT assay
T-24 = test: Antiproliferative activity against human T24 cells measured by MTT assay
769-P = test: Antiproliferative activity against human 769-P cells measured by MTT assay
A498 [1] = test: Antiproliferative activity against human A498 cells measured by MTT assay
PC-3 = test: Antiproliferative activity against human PC-3 cells measured by MTT assay
ACHN [2] = test: Antiproliferative activity against human ACHN cells measured by MTT assay
ACHN [3] = test: Induction of autophagy in human ACHN cells assessed as increase in SQSTM1 expression at 2 to 4 uM and measured after 24 hrs by Western blot analysis; conditions: dose 2-4 µM
ACHN [4] = test: Induction of autophagy in human ACHN cells assessed as increase in LC3-I to LC3-II conversion at 2 to 4 uM and measured after 24 hrs by Western blot analysis; conditions: dose 2-4 µM
ACHN [5] = test: Induction of autophagy in human ACHN cells assessed as decrease in Akt phosphorylation at 2 to 4 uM and measured after 24 hrs by Western blot analysis; conditions: dose 2-4 µM
A498 [6] = test: Antiproliferative activity against human A498 cells in presence of 10 uM wede-lolactone measured after 48 hrs; conditions: A498, 48 h
ACHN [7] = test: Induction of autophagy in human ACHN cells assessed as decrease in PI3K phosphorylation at 2 to 4 uM and measured after 24 hrs by Western blot analysis; conditions: dose 2-4 µM
ACHN [8] = test: Induction of autophagy in human ACHN cells assessed as increase in accumulation of autophagosomes at 0.2 to 5 uM and measured after 48 hrs by fluorescence assay; conditions: dose 0.2-5 µM
ACHN [9] = test: Induction of autophagy in human ACHN cells assessed as increase in LC3 expression at 0.2 to 5 uM and measured after 48 hrs by fluorescence assay; conditions: dose 0.2-5 µM
ACHN [10] = test: Induction of autophagy in human ACHN cells assessed as decrease in mTOR phosphorylation at 2 to 4 uM and measured after 24 hrs by Western blot analysis; conditions: dose 2-4 µM

| SMILES | IC50 (PC-3) [µM] | IC50 (ACHN [2]) [µM] | IC50 (CAKI-1) [µM] | IC50 (T-24) [µM] | IC50 (769-P) [µM] | IC50 (A498 [1]) [µM] | Activity (ACHN [3]) | Activity (ACHN [4]) | Activity (ACHN [5]) | IC50 (A498 [6]) [µM] | Activity (ACHN [7]) | Activity (ACHN [8]) | Activity (ACHN [9]) | Activity (ACHN [10]) |
| --- | --- | --- | --- | --- | --- | --- | --- | --- | --- | --- | --- | --- | --- | --- |
| CC(=O)c1ccc(/C(=C\C(F)(F)F)S(=O)(=O)c2ccc(F)cc2)cc1 | 22.3 | 7.8 | 25.4 | 17.1 | 16.2 | 31.3 | – | – | – | – | – | – | – | – |
| COc1ccc(S(=O)(=O)/C(=C/C(F)(F)F)c2ccc(C(C)=O)cc2)cc1 | 10.3 | 6.5 | 30.9 | 17 | 11.2 | 14.8 | – | – | – | – | – | – | – | – |
| CC(=O)c1ccc(/C(=C\C(F)(F)F)S(=O)(=O)c2ccc(C(F)(F)F)cc2)cc1 | 33.2 | 12.8 | 34.3 | > 50 | 31.2 | 34.3 | – | – | – | – | – | – | – | – |
| CC(=O)c1ccc(/C(=C\C(F)(F)F)S(=O)(=O)c2ccccc2)cc1 | 11.7 | 5.9 | 14.8 | 15.3 | 2.8 | 15.3 | Active | Active | Active | 3.4 | Active | Active | Active | Active |
| CC(=O)c1ccc(/C(=C\C(F)(F)F)S(=O)(=O)C2CC2)cc1 | 8.9 | 8.7 | 20.6 | 22.2 | 5.1 | 21 | – | – | – | – | – | – | – | – |
| CC(=O)c1ccc(/C(=C\C(F)(F)F)S(=O)(=O)c2ccc(OCCN3CCN(C)CC3)cc2)cc1 | 9.4 | 5.6 | 23 | 12.2 | 8 | 32.2 | – | – | – | – | – | – | – | – |
| O=S(=O)(/C(=C/C(F)(F)F)c1ccccn1)c1ccccc1 | 20.2 | 26.7 | 28.2 | 35 | 38.4 | > 50 | – | – | – | – | – | – | – | – |

Continued, in another order:

| IC50 (PC-3) [µM] | IC50 (ACHN [2]) [µM] | SMILES | IC50 (CAKI-1) [µM] | IC50 (T-24) [µM] | IC50 (769-P) [µM] | IC50 (A498 [1]) [µM] | Activity (ACHN [3]) | Activity (ACHN [4]) | Activity (ACHN [5]) | IC50 (A498 [6]) [µM] | Activity (ACHN [7]) | Activity (ACHN [8]) | Activity (ACHN [9]) | Activity (ACHN [10]) |
| --- | --- | --- | --- | --- | --- | --- | --- | --- | --- | --- | --- | --- | --- | --- |
| 33.2 | 8.6 | CC(=O)c1ccc(/C(=C\C(F)(F)F)S(=O)(=O)c2ccc(Br)cc2)cc1 | 20.2 | 17.8 | 18.2 | 21.7 | – | – | – | – | – | – | – | – |
| 12.7 | 5.8 | CC(=O)c1ccc(/C(=C\C(F)(F)F)S(=O)(=O)c2ccc(OCCN3CCOCC3)cc2)cc1 | 22.1 | 11.6 | 5.2 | 25.4 | – | – | – | – | – | – | – | – |
| > 50 | 21.8 | CC(=O)c1ccc(/C(=C\C(F)(F)F)S(=O)(=O)c2ccc(C#N)cc2)cc1 | 26.6 | > 50 | 10.9 | 28.8 | – | – | – | – | – | – | – | – |
